Measured values: publication PMC4164625 (PLoS ONE, 2014)

Tests used:
[1] = target: T1, recombinant human SIRT1 (Homo sapiens, UniProt Q96EB6); assay: Fluorometric deacetylation assay, IC50 of NAM and isoNAM for SIRT1
T1 sequence (Q96EB6 1-747): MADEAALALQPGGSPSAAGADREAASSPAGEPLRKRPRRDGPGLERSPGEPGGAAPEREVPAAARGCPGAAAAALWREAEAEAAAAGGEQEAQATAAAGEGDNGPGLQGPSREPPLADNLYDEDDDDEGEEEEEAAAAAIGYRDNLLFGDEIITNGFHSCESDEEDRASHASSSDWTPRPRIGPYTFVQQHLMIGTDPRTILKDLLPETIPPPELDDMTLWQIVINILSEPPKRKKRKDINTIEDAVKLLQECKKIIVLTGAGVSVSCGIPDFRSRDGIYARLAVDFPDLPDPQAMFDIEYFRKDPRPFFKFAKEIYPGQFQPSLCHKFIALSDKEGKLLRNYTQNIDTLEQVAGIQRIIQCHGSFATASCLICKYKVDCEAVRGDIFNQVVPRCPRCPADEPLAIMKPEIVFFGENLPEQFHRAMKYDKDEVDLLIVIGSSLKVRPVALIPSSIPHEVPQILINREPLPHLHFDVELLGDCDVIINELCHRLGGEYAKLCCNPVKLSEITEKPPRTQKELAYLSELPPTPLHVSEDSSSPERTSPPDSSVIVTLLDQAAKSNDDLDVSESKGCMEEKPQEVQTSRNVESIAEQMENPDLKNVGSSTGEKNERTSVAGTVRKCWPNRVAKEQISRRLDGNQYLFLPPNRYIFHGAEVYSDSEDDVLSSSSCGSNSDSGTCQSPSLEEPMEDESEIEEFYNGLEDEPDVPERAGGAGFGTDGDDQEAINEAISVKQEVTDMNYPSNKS

[2] = target: T2, recombinant human SIRT3 (Homo sapiens, UniProt Q9NTG7); assay: SIRT3 initial-rate inhibition kinetics against NAD+, global nonlinear fitting (Eq. 1 / Eq. 2)
T2 sequence (Q9NTG7 1-399): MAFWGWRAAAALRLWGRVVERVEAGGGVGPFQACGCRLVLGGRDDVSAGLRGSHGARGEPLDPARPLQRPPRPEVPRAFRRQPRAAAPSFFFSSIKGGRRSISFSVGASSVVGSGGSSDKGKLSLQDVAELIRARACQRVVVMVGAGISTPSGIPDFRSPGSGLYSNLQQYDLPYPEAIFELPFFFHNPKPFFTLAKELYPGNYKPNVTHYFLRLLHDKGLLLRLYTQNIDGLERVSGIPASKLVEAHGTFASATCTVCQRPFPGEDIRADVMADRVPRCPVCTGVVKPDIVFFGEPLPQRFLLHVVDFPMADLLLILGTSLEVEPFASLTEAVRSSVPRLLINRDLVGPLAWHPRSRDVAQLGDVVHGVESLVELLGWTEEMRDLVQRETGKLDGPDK

[3] = target: T2, recombinant human SIRT3; assay: Fluorometric deacetylation assay, IC50 of NAM and isoNAM for SIRT3; type: biochemical; design: purchased Creative BioMart; settings: 90 minutes incubation, 1 mM NAD^+ at 37°C (Methods b105: 100 µM NAD^+)
[4] = system: mouse Sir2; settings: cited from earlier work
[5] = system: yeast Sir2; settings: cited from earlier work
[6] = system: SIRT5; settings: cited from earlier work
[7] = system: SIRT2; settings: cited from earlier work
[8] = system: bacterial Sir2; settings: cited from earlier work
[9] = target: T1, recombinant human SIRT1; assay: SIRT1 initial-rate inhibition kinetics against NAD+, global nonlinear fitting (Eq. 1); type: biochemical; design: purchased Enzo Life Sciences AK 555
Text: We utilized a novel deacetylation activity assay that generates a fluorescent signal upon deacetylation of a peptide substrate.
Data are globally nonlinear fitted to base exchange inhibition model (Eq. 1) and shown as a double-reciprocal plot of 1/v versus 1/[NAD^+]. In (C) and (D), the intersection points of the double reciprocal plots are enlarged for SIRT1 and SIRT3, respectively.

[10] = system: SIRT1; settings: cited from earlier work

| IC50 [1] [µM] | Ki ([2]; K 2(K i), K2 of Eq. 1 for NAM, Ki of Eq. 2 for isoNAM (in brackets), unit inferred, b71 gives isoNAM Ki≈4.6 mM) [µM] | Ki ([2]; Ki, from fitting of Eq. 2, as restated in the Discussion) [µM] | Inhibition mode with respect to NAD^+ ([2]; double reciprocal plot / value of α) | Vmax, model parameter estimate ([2]; global nonlinear fit of initial rates with the named inhibitor (Eq. 1 for NAM, Eq. 2 for isoNAM)) [µM/min] | Michaelis constant, model parameter estimate ([2]; global nonlinear fit of initial rates with the named inhibitor (Eq. 1 for NAM, Eq. 2 for isoNAM), varying NAD^+, saturating peptide, 37°C) [µM] | IC50 [3] [µM] | Compound | IC50 [4] [µM] | IC50 [5] [µM] | IC50 [6] [µM] | IC50 [7] [µM] | IC50 [8] [µM] | Vmax, model parameter estimate ([9]; global nonlinear fit of initial rates with NAM (Eq. 1)) [µM/min] | Michaelis constant, model parameter estimate ([9]; global nonlinear fit of initial rates with NAM (Eq. 1), varying NAD^+, saturating peptide, 37°C) [µM] | α ([9]; mixed inhibition model, K3≡αK2 (Eq. 1)) | IC50 [10] [µM] |
| --- | --- | --- | --- | --- | --- | --- | --- | --- | --- | --- | --- | --- | --- | --- | --- | --- |
| 12200 ± 300 | 4620 | ~4600 | competitive inhibitor | 0.167 | 1402 | 13800 ± 500 | NC(=O)c1ccncc1 [isoNAM, isonicotinamide] |  |  |  |  |  |  |  |  |  |
|  |  |  |  |  |  |  | NC(=O)c1cccnc1 [NAM, nicotinamide] | 160 | 120 | 1600 | […] | 26 | 0.863 | 168.2 | 0.848 | 50 |
